Consider two compounds from publication PMC7036753, “Lipidated Analogs of the LL-37-Derived Peptide Fragment KR12—Structural Analysis, Surface-Active Properties and Antimicrobial Activity” (International Journal of Molecular Sciences, 2020).

≈ marks a conversion by molar mass, not a printed value. Peptide text beside a SMILES is read from it. * marks the point of attachment. Octanoyl = CCCCCCCC(=O)*; X1 = O=C(/C=C/c1ccccc1)*

Assay [1] concerns reference strains of S. aureus. Type of assay: cell-based, Staphylococcus aureus. The conditions noted are these: reference strains of, 24 h. The method, then: (§1) Examination of antimicrobial activity of the test compounds was conducted on reference strains of bacteria assigned to ESKAPE group of pathogens: Enterococcus faecium ATCC 700221, Klebsiella pneumoniae ATCC 700603, Acinetobacter baumannii ATCC BAA-1605, Pseudomonas aeruginosa ATCC 9027, Klebsiella aerogenes ATCC 13048 (formerly Enterobacter aerogenes) and reference strains of Staphylococcus aureus, namely: S. aureus ATCC 25923, S. aureus ATCC 6538, S. aureus ATCC 33591 (MRSA), S. aureus ATCC 9144 and S. aureus ATCC 12598. All the strains were stored at −80 °C in Roti®-Store cryo vials (Carl Roth GmbH, Karlsruhe, Germany) and before the tests were transferred into fresh Mueller-Hinton Medium (BioMaxima, Lublin, Poland) and incubated for 24 h at 37 °C. Subsequently, each bacterial inoculum was seeded on Mueller-Hinton Agar plates (BioMaxima) and incubated again for 24 h. The cultures prepared in this way were used in further antimicrobial assays and prepared as described above. The MIC values were determined by the broth microdilution method according to Clinical and Laboratory Standards Institute Protocol. […] The experiments were conducted on 96-well microtiter plates, with a final volume of 100 µL. Cell densities were adjusted spectrophotometrically (Multiskan™ GO Microplate Spectrophotometer, Thermo Scientific) at 600 nm. The MICs were taken as the lowest drug concentration at which a visible growth of microorganisms was inhibited. All experiments were conducted in triplicate and included positive (growth) and negative (sterility) controls.

For the next assay, the system named is K. aerogenes ATCC 13048. Type of assay: cell-based, Klebsiella aerogenes. The conditions noted are these: ATCC 13048, 18 h. The method, then:
(§2) Examination of antimicrobial activity of the test compounds was conducted on reference strains of bacteria assigned to ESKAPE group of pathogens: Enterococcus faecium ATCC 700221, Klebsiella pneumoniae ATCC 700603, Acinetobacter baumannii ATCC BAA-1605, Pseudomonas aeruginosa ATCC 9027, Klebsiella aerogenes ATCC 13048 (formerly Enterobacter aerogenes) and reference strains of Staphylococcus aureus, namely: S. aureus ATCC 25923, S. aureus ATCC 6538, S. aureus ATCC 33591 (MRSA), S. aureus ATCC 9144 and S. aureus ATCC 12598. All the strains were stored at −80 °C in Roti®-Store cryo vials (Carl Roth GmbH, Karlsruhe, Germany) and before the tests were transferred into fresh Mueller-Hinton Medium (BioMaxima, Lublin, Poland) and incubated for 24 h at 37 °C. Subsequently, each bacterial inoculum was seeded on Mueller-Hinton Agar plates (BioMaxima) and incubated again for 24 h. The cultures prepared in this way were used in further antimicrobial assays and prepared as described above. The MIC values were determined by the broth microdilution method according to Clinical and Laboratory Standards Institute Protocol. For this purpose, initial inoculums of bacteria (0.5 × 10^5 colony forming unit (CFU)/mL) in Mueller–Hinton Broth were exposed to the ranging concentrations of compounds (0.5–256 µg/mL) and incubated for 18 h at 37 °C. The experiments were conducted on 96-well microtiter plates, with a final volume of 100 µL. Cell densities were adjusted spectrophotometrically (Multiskan™ GO Microplate Spectrophotometer, Thermo Scientific) at 600 nm. The MICs were taken as the lowest drug concentration at which a visible growth of microorganisms was inhibited. All experiments were conducted in triplicate and included positive (growth) and negative (sterility) controls.

Another assay relates to S. aureus ATCC 12598. Type of assay: cell-based, Staphylococcus aureus. The conditions noted are these: ATCC 12598, 18 h. The method, then: as §2
The next assay deals with S. aureus ATCC 6538. Type of assay: cell-based, Staphylococcus aureus. The conditions noted are these: ATCC 6538, 18 h. How it is done:
as §2

For the next assay, the system named is S. aureus ATCC 9144. Type of assay: cell-based, Staphylococcus aureus. The conditions noted are these: ATCC 9144, 18 h. The method, then: as §2
A further assay deals with S. aureus ATCC 25923. Type of assay: cell-based, Staphylococcus aureus. The conditions noted are these: ATCC 25923, 18 h. How it is done:
as §2

The test system of assay [2] is S. aureus ATCC 33591 (MRSA). Type of assay: cell-based, Staphylococcus aureus. The conditions noted are these: ATCC 33591, 18 h. How it is done:
as §2

Assay [3] has as its system K. pneumoniae ATCC 700603. Type of assay: cell-based, Klebsiella pneumoniae. The conditions noted are these: ATCC 700603, 18 h. The method, then:
as §2

Assay [4] has as its system biofilm of S. aureus strains. As to the kind of experiment: MBEC over reference strains of S. aureus. Type of assay: cell-based, Staphylococcus aureus. How it is done:
(§3) The MBECs values were determined according to the method reported previously. Briefly, 24-h cultures of S. aureus, namely: S. aureus ATCC 25923, S. aureus ATCC 6538, S. aureus ATCC 33591 (MRSA), S. aureus ATCC 9144 and S. aureus ATCC 12598 were diluted to a concentration of 0.5 × 10^7 CFU/mL and added to the test wells of polystyrene microdilution flat-bottom plates. After 24-h of incubation at 37 °C, the wells were rinsed three times with PBS to remove non-adherent cells. Subsequently, 100 μL of the test compounds over a concentration range 0.5–256 µg/mL were added to each well and incubated again for 24 h at 37 °C. After this period, 20 μL of the resazurin (7-hydroxy-3H-phenoxazin-3-one-10-oxide, 4 mg/mL) solution was added to each well. After 1 h of incubation, the MBECs were read out. The determined values were recorded as the lowest concentration at which the reduction of resazurin (from blue to pink) was lower or equal to 10 ± 0.5% as compared to the positive (100%) and negative (0%) controls. All experiments were performed in triplicate.

Assay [5] has as its system A. baumannii ATCC BAA-1605. Type of assay: cell-based, Acinetobacter baumannii. The conditions noted are these: ATCC BAA-1605, 18 h. The method, then:
as §2

For assay [6], the system named is human keratinocytes (HaCaT). Type of assay: cell-based. The conditions noted are these: 24 h. How it is done:
The cytotoxicity of test compounds (IC50) was evaluated for human keratinocytes (HaCaT, ATCC) using classic MTT assay on 96-well plates. In this assay, a colorimetric determination of the cell metabolic activity was carried out. Specifically, the color intensity reflects the number of live cells that can be measured spectrophotometrically. […] A day after plating 500 cells per well, a series of concentrations (0.5–500 μg/mL) of the test compounds were added. Dimethyl sulfoxide (DMSO) was used as a control in cells at a final concentration of 1.0% (v/v), which was related to the maximal concentration of the solvent compounds used in the experiment. After 24 h of incubation with test compounds, a medium containing 1 mg/mL of MTT was added up to a final concentration of 0.5 mg/mL and subsequently incubated at 37 °C for 4 h. Then, the medium was aspirated and the formazan product was solubilized with DMSO. The background absorbance at 630 nm was subtracted from that at 570 nm for each well (Epoch, BioTek Instruments, Winooski, VT, USA). Six replicates were conducted for each concentration. All experiments were repeated at least twice and the resulting IC50 values were calculated with a GraFit 7 software (v. 7.0, Erithacus, Berkley, CA, USA).

Another assay deals with P. aeruginosa ATCC 9027. Type of assay: cell-based, Pseudomonas aeruginosa. The conditions noted are these: ATCC 9027, 18 h. The method, then: as §2
Another assay concerns E. faecium ATCC 700221. Type of assay: cell-based, Enterococcus faecium. The conditions noted are these: ATCC 700221, 18 h. How it is done: as §2
The subject of assay [7] is S. aureus ATCC 12598 biofilm. Type of assay: cell-based, Staphylococcus aureus. The conditions noted are these: ATCC 12598, 24 h. The method, then:
as §3

The subject of assay [8] is S. aureus ATCC 9144 biofilm. Type of assay: cell-based, Staphylococcus aureus. The conditions noted are these: ATCC 9144, 24 h. The method, then: as §3
Assay [9] relates to S. aureus ATCC 25923 biofilm. Type of assay: cell-based, Staphylococcus aureus. The conditions noted are these: ATCC 25923, 24 h. The method, then:
as §3

For assay [10], the system named is S. aureus ATCC 33591 (MRSA) biofilm. Type of assay: cell-based, Staphylococcus aureus. The conditions noted are these: ATCC 33591, 24 h. The method, then:
as §3

Assay [11] relates to S. aureus ATCC 6538 biofilm. Type of assay: cell-based, Staphylococcus aureus. The conditions noted are these: ATCC 6538, 24 h. How it is done: as §3
The next assay deals with ESKAPE strains. Type of assay: cell-based. The conditions noted are these: 24 h. How it is done: as §1, with “The MICs were taken as the lowest drug concentration at which a visible growth of microorganisms was inhibited. All experiments were conducted in triplicate and included positive (growth) and negative (sterility) controls.” left out

For `CCCCCCCC(=O)N[C@@H](CCCCN)C(=O)N[C@@H](CCCNC(=N)N)C(=O)N[C@H](C(=O)N[C@H](C(=O)N[C@@H](CCC(N)=O)C(=O)N[C@@H](CCCNC(=N)N)C(=O)N[C@H](C(=O)N[C@@H](CCCCN)C(=O)N[C@@H](CC(=O)O)C(=O)N[C@@H](Cc1ccccc1)C(=O)N[C@@H](CC(C)C)C(=O)N[C@@H](CCCNC(=N)N)C(N)=O)[C@@H](C)CC)C(C)C)[C@@H](C)CC` [IV, C8-KR12-NH2] (Octanoyl-KRIVQRIKDFLR-NH2), the “GM (geometric mean of the MIC values against S. aureus)” value in assay [1] was 2.30 µg/mL. Further, the MIC (usually the lowest concentration found to suppress growth) against K. aerogenes ATCC 13048 was 2 µg/mL (≈ 1.18 µM); with S. aureus ATCC 12598 it was 4 µg/mL (≈ 2.36 µM); in the assay with S. aureus ATCC 6538, 2 µg/mL (≈ 1.18 µM); with S. aureus ATCC 9144, 2 µg/mL (≈ 1.18 µM); in the assay on S. aureus ATCC 25923, 2 µg/mL (≈ 1.18 µM); in [2] it was 2 µg/mL (≈ 1.18 µM). In addition, the MIC in assay [3] is listed as 2 µg/mL (≈ 1.18 µM); in assay [5], 2 µg/mL (≈ 1.18 µM); in the assay with P. aeruginosa ATCC 9027, 2 µg/mL (≈ 1.18 µM); in the assay with E. faecium ATCC 700221, 1 µg/mL (≈ 0.589 µM). Besides, the MBEC range in [4] fell in the range of 4 to 16 µg/mL. The IC50 (commonly the concentration at which inhibition is half-maximal) in [6] was 3.23 µg/mL (≈ 1.9 µM). The MBEC amounted to 4 µg/mL in assay [7]; 4 µg/mL in [8]; 8 µg/mL in assay [9]; 4 µg/mL in [10]; 16 µg/mL in [11]. In the assay on ESKAPE strains, this compound yielded an MIC range of 1 to 4 µg/mL.

With `CC[C@H](C)[C@H](NC(=O)[C@H](CCCNC(=N)N)NC(=O)[C@H](CCC(N)=O)NC(=O)[C@@H](NC(=O)[C@@H](NC(=O)[C@H](CCCNC(=N)N)NC(=O)[C@H](CCCCN)NC(=O)/C=C/c1ccccc1)[C@@H](C)CC)C(C)C)C(=O)N[C@@H](CCCCN)C(=O)N[C@@H](CC(=O)O)C(=O)N[C@@H](Cc1ccccc1)C(=O)N[C@@H](CC(C)C)C(=O)N[C@@H](CCCNC(=N)N)C(N)=O` [IX, trans-Cinnamic acid-KR12-NH2] (X1-KRIVQRIKDFLR-NH2), in assay [1], the “GM (geometric mean of the MIC values against S. aureus)” value is 4.00 µg/mL. In addition, the MIC in the assay on K. aerogenes ATCC 13048 is recorded as 4 µg/mL (≈ 2.35 µM); against S. aureus ATCC 12598, 4 µg/mL (≈ 2.35 µM); with S. aureus ATCC 6538 it was 2 µg/mL (≈ 1.18 µM); in the assay on S. aureus ATCC 9144, 4 µg/mL (≈ 2.35 µM); in the assay with S. aureus ATCC 25923, 8 µg/mL (≈ 4.7 µM); in assay [2] it was 4 µg/mL (≈ 2.35 µM). Further, the MIC is on record as 4 µg/mL (≈ 2.35 µM) in assay [3], 4 µg/mL (≈ 2.35 µM) in assay [5], 4 µg/mL (≈ 2.35 µM) against P. aeruginosa ATCC 9027 and 1 µg/mL (≈ 0.588 µM) against E. faecium ATCC 700221. This compound also yielded an IC50 in [6] of 10.00 µg/mL (≈ 5.88 µM). The MBEC was determined as 4 µg/mL in assay [7]; 8 µg/mL in assay [8]; 32 µg/mL in [9]; 16 µg/mL in assay [10]; 8 µg/mL in assay [11]. The MIC range in the assay on ESKAPE strains was in the range of 1 to 8 µg/mL.
